Assay results as given in patent US20250243194A1, “ANTAGONIST OF ADENOSINE RECEPTORS” (AdoRx Therapeutics Limited, priority 2022, published 2025).
Where two headings read alike, the source gives them in different places.

Legend:
[1] = target: human Adenosine A1 receptor (Homo sapiens (Human), UniProt P30542); test: Adenosine receptor TR-FRET binding assay (A1)
Protocol: (§1) All FRET binding experiments were conducted at room temperature in white 384-well plates, in assay binding buffer containing 1× LabMed (Cisbio, France), 100 μg/mL saponin, 1% DMSO and 0.02% pluronic acid. Binding of the fluorescently labelled Adenosine receptor antagonist XAC (CA200645, FRET acceptor) to terbium-labelled A1, A2a, A2b and A3 adenosine receptors (FRET donors) was detected by time-resolved FRET due to the close proximity of the donor and acceptor in a binding event. To investigate the ability of unlabelled test compounds to bind to Adenosine A1, A2a, A2b and A3 receptors, dose response curves were constructed that determined the ability of a range of concentrations to inhibit the binding of 30 nM CA200645 to the A2b receptor and 100 nM CA200645 to the A1, A2a, and A3 receptor.
(§2) Serial dilution (1:3 dilutions) of test compounds in neat DMSO and transfer of a 400 nL sample of test compound into the assay plate was carried out using the Mosquito (TTP Labtech, UK). The compound samples were incubated for 2 hours at room temperature with a fixed concentration of CA200645 defined for each receptor (see above) and CHO cell membranes containing the human Adenosine A1 (0.5 μg/well), A2a (0.3 μg/well), A2b (1 μg/well) or A3 (1 μg/well) receptor in 40 μL of assay buffer. Total and non-specific binding of CA200645 was determined in the absence and presence of 10 μM XAC, respectively. Following 2 hours incubation, the level of CA200645 binding was detected on a Pherastar FSX (BMG Labtech, Germany) using standard TR-FRET settings. The terbium donor was excited with three laser flashes at a wavelength of 337 nm, and donor and acceptor emission was detected at 620 nm and 665 nm wavelengths, respectively. FRET ratios were obtained by multiplying the acceptor/donor ratio value by 10,000. Specific binding was determined by subtracting the non-specific binding FRET ratio from the total binding FRET ratio. Compound IC50 curves were analysed using GraphPad Prism 7.0 (GraphPad, USA) and Ki affinity values were determined from the obtained IC50 values using the method of Cheng and Prusoff.

[2] = target: human Adenosine A2a receptor (Homo sapiens (Human), UniProt P29274); test: Adenosine receptor TR-FRET binding assay (A2a)
Chain of human Adenosine A2a receptor (P29274 whole entry): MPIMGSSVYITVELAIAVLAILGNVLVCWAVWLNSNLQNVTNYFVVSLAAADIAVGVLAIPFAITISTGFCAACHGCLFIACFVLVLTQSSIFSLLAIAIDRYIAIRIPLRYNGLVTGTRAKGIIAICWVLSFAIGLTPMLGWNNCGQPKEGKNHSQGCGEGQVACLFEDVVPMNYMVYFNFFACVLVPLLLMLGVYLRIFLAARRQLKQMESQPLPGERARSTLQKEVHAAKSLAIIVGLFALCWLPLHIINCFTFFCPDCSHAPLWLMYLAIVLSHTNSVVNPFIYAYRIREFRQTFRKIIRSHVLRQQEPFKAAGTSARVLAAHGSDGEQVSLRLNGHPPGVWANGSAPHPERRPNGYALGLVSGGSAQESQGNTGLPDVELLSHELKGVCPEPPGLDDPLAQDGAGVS
Protocol: as §1, §2

[3] = target: human Adenosine A2b receptor (Homo sapiens (Human), UniProt P29275); test: Adenosine receptor TR-FRET binding assay (A2b); conditions: inhibition of binding of 30 nM CA200645; CHO cell membranes; Ki from IC50 by Cheng and Prusoff
Chain of human Adenosine A2b receptor (P29275 whole entry): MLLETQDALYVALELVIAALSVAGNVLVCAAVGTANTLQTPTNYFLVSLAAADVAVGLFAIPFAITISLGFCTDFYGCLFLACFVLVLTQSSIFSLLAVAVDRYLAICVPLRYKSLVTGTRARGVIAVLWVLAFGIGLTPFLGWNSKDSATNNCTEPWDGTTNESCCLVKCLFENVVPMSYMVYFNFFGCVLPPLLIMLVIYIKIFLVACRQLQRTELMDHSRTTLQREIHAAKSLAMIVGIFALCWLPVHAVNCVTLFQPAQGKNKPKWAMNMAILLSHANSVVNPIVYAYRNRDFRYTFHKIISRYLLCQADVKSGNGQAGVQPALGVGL
Protocol: as §1, §2

[4] = inhibition of binding of 100 nM CA200645, CHO cell membranes, Ki from IC50 by Cheng and Prusoff

Chain of human Adenosine A1 receptor (P30542 whole entry): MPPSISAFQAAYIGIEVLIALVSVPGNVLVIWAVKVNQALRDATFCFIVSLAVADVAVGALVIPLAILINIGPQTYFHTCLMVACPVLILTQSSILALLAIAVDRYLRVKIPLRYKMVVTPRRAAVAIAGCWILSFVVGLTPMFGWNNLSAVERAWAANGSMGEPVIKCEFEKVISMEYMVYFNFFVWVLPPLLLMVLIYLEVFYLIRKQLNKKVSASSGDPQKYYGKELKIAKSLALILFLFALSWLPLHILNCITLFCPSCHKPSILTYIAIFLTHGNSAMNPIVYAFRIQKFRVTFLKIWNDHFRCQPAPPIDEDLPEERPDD

Structure (SMILES) | Ki [1, 4] | Ki [2, 4] | Ki [3] | Ki [1] | Ki [2]
Cc1ncnc2ccc(-c3sc(NC(=O)N4CCOC(C(C)(C)O)C4)nc3-c3cccc(C#N)c3)cc12 (racemic) [Example 7.7, N-[4-(3-Cyanophenyl)-5-(4-methylquinazolin-6-yl)thiazol-2-yl]-2-(1-hydroxy-1-methyl-ethyl)morpholine-4-carboxamide] | 9 nM | 0.26 nM | 3.6 nM | – | –
Cc1ncnc2ccc(-c3sc(NC(=O)N4CCO[C@H](C(C)(C)O)C4)nc3-c3cccc(C#N)c3)cc12 (single isomer, unassigned) [Example 7.7a, (2S)—N-[4-(3-Cyanophenyl)-5-(4-methylquinazolin-6-yl)thiazol-2-yl]-2-(1-hydroxy-1-methyl-ethyl)morpholine-4-carboxamide or (2R)—N-[4-(3-cyanophenyl)-5-(4-methylquinazolin-6-yl)thiazol-2-yl]-2-(1-hydroxy-1-methyl-ethyl)morpholine-4-carboxamide] | 4 nM | 0.1 nM | 1.1 nM | – | –
Cc1ncnc2ccc(-c3sc(NC(=O)N4CCO[C@H](C(C)(C)O)C4)nc3-c3cccc(C#N)c3)cc12 (single isomer, unassigned) [Example 7.7b, (2S)—N-[4-(3-Cyanophenyl)-5-(4-methylquinazolin-6-yl)thiazol-2-yl]-2-(1-hydroxy-1-methyl-ethyl)morpholine-4-carboxamide or (2R)—N-[4-(3-cyanophenyl)-5-(4-methylquinazolin-6-yl)thiazol-2-yl]-2-(1-hydroxy-1-methyl-ethyl)morpholine-4-carboxamide] | 9 nM | 0.2 nM | 1.5 nM | – | –
Cc1ncnc2ccc(-c3sc(NC(=O)N4CC[C@](C)(C#N)C4)nc3-c3cccc(C#N)c3)cc12 [Example 1, (3S)-3-Cyano-N-[4-(3-cyanophenyl)-5-(4-methylquinazolin-6-yl)thiazol-2-yl]-3-methyl-pyrrolidine-1-carboxamide] | 2 nM | 0.12 nM | 0.9 nM | – | –
Cc1ncnc2ccc(-c3sc(NC(=O)N4CC5(COCCN5)C4)nc3-c3cccc(C#N)c3)cc12 [Example 4.2, N-[4-(3-Cyanophenyl)-5-(4-methylquinazolin-6-yl)thiazol-2-yl]-8-oxa-2,5-diazaspiro[3.5]nonane-2-carboxamide] | – | – | 3 nM | 34 nM | 0.35 nM
Cc1ncnc2ccc(-c3sc(NC(=O)N4CCC5(COCCN5)C4)nc3-c3cccc(C#N)c3)cc12 (stereo not drawn) [Example 4.3, N-[4-(3-Cyanophenyl)-5-(4-methylquinazolin-6-yl)thiazol-2-yl]-9-oxa-2,6-diazaspiro[4.5]decane-2-carboxamide] | – | – | 2.4 nM | 30 nM | 0.3 nM
Cc1ncnc2ccc(-c3sc(NC(=O)N4CCN(C(C)(C)C#N)CC4)nc3-c3cccc(C#N)c3)cc12 [Example 7.2, 4-(1-Cyano-1-methyl-ethyl)-N-[4-(3-cyanophenyl)-5-(4-methylquinazolin-6-yl)thiazol-2-yl]piperazine-1-carboxamide] | 9 nM | 0.2 nM | 1.5 nM | – | –
Cc1ncnc2ccc(-c3sc(NC(=O)N4CC5CN(C)CC54)nc3-c3cccc(C#N)c3)cc12 (stereo not drawn) [Example 7.3, N-[4-(3-Cyanophenyl)-5-(4-methylquinazolin-6-yl)thiazol-2-yl]-3-methyl-3,6-diazabicyclo[3.2.0]heptane-6-carboxamide] | 19 nM | 2.42 nM | 10.5 nM | – | –
Cc1ncnc2ccc(-c3sc(NC(=O)N4CCN(C(C)C#N)CC4)nc3-c3cccc(C#N)c3)cc12 (stereo not drawn) [Example 7.5, 4-(1-Cyanoethyl)-N-[4-(3-cyanophenyl)-5-(4-methylquinazolin-6-yl)thiazol-2-yl]piperazine-1-carboxamide] | 9 nM | 0.21 nM | 1.2 nM | – | –
Cc1ncnc2ccc(-c3sc(NC(=O)N4CCOC(CN(C)C)C4)nc3-c3cccc(C#N)c3)cc12 (stereo not drawn) [Example 7.8, N-[4-(3-Cyanophenyl)-5-(4-methylquinazolin-6-yl)thiazol-2-yl]-2-[(dimethylamino)methyl]morpholine-4-carboxamide] | 13 nM | 0.14 nM | 2.4 nM | – | –
Cc1ncnc2ccc(-c3sc(NC(=O)N4CCC(OCCN5CCCC5)C4)nc3-c3cccc(C#N)c3)cc12 (stereo not drawn) [Example 7.9, N-[4-(3-Cyanophenyl)-5-(4-methylquinazolin-6-yl)thiazol-2-yl]-3-(2-pyrrolidin-1-ylethoxy)pyrrolidine-1-carboxamide] | 21 nM | 0.1 nM | 1.9 nM | – | –
Cc1ncnc2ccc(-c3sc(NC(=O)N4CCC5(CC4)CN(C)CCO5)nc3-c3cccc(C#N)c3)cc12 [Example 7.10, N-[4-(3-Cyanophenyl)-5-(4-methylquinazolin-6-yl)thiazol-2-yl]-4-methyl-1-oxa-4,9-diazaspiro[5.5]undecane-9-carboxamide] | 12 nM | 0.42 nM | 2.8 nM | – | –
Cc1ncnc2ccc(-c3sc(NC(=O)N4CC5CCCN(C)C5C4)nc3-c3cccc(C#N)c3)cc12 (stereo not drawn) [Example 7.11, N-[4-(3-Cyanophenyl)-5-(4-methylquinazolin-6-yl)thiazol-2-yl]-1-methyl-3,4,4a,5,7,7a-hexahydro-2H-pyrrolo[3,4-b]pyridine-6-carboxamide] | 98 nM | 0.54 nM | 5.4 nM | – | –
Cc1ncnc2ccc(-c3sc(NC(=O)N4CCC(N5CCN(C)CC5)CC4)nc3-c3cccc(C#N)c3)cc12 [Example 7.12, N-[4-(3-Cyanophenyl)-5-(4-methylquinazolin-6-yl)thiazol-2-yl]-4-(4-methylpiperazin-1-yl)piperidine-1-carboxamide] | 221 nM | 2.05 nM | 6.5 nM | – | –
Cc1ncnc2ccc(-c3sc(NC(=O)N4CCN(C5CCN(C)CC5)CC4)nc3-c3cccc(C#N)c3)cc12 [Example 7.13, N-[4-(3-Cyanophenyl)-5-(4-methylquinazolin-6-yl)thiazol-2-yl]-4-(1-methyl-4-piperidyl)piperazine-1-carboxamide] | 125 nM | 1.01 nM | 4.8 nM | – | –
Cc1ncnc2ccc(-c3sc(NC(=O)N4CCC(N5CCOCC5)CC4)nc3-c3cccc(C#N)c3)cc12 [Example 7.14, N-[4-(3-Cyanophenyl)-5-(4-methylquinazolin-6-yl)thiazol-2-yl]-4-morpholino-piperidine-1-carboxamide] | 150 nM | 2.61 nM | 5.4 nM | – | –
Cc1ncnc2ccc(-c3sc(NC(=O)N4CCN(CC#N)CC4)nc3-c3cccc(C#N)c3)cc12 [Example 7.15, 4-(Cyanomethyl)-N-[4-(3-cyanophenyl)-5-(4-methylquinazolin-6-yl)thiazol-2-yl]piperazine-1-carboxamide] | 14 nM | 0.18 nM | 1.1 nM | – | –
Cc1ncnc2ccc(-c3sc(NC(=O)N4CCN[C@H](C(C)(C)O)C4)nc3-c3cccc(C#N)c3)cc12 [Example 7.16, (3S)-N-[4-(3-Cyanophenyl)-5-(4-methylquinazolin-6-yl)thiazol-2-yl]-3-(1-hydroxy-1-methyl-ethyl)piperazine-1-carboxamide] | 17 nM | 0.18 nM | 2.6 nM | – | –
Cc1ncnc2ccc(-c3sc(NC(=O)N4CCCNCC4)nc3-c3cccc(C#N)c3)cc12 [Example 7.18, N-[4-(3-Cyanophenyl)-5-(4-methylquinazolin-6-yl)thiazol-2-yl]-1,4-diazepane-1-carboxamide] | 11 nM | 0.38 nM | 2.2 nM | – | –
Cc1ncnc2ccc(-c3sc(NC(=O)N4CC5(CCO5)C4)nc3-c3cccc(C#N)c3)cc12 [Example 7.19, N-[4-(3-Cyanophenyl)-5-(4-methylquinazolin-6-yl)thiazol-2-yl]-1-oxa-6-azaspiro[3.3]heptane-6-carboxamide] | 13 nM | 0.08 nM | 0.9 nM | – | –
Cc1ncnc2ccc(-c3sc(NC(=O)N4CCN(CCO)CC4)nc3-c3cccc(C#N)c3)cc12 [Example 7.27, N-[4-(3-Cyanophenyl)-5-(4-methylquinazolin-6-yl)thiazol-2-yl]-4-(2-hydroxyethyl)piperazine-1-carboxamide] | 27 nM | 0.48 nM | 3.1 nM | – | –
Cc1nc(C)c2cc(-c3sc(NC(=O)N4CC5(COC5)C4)nc3-c3cccc(C#N)c3)ccc2n1 [Example 9, N-[4-(3-Cyanophenyl)-5-(2,4-dimethylquinazolin-6-yl)thiazol-2-yl]-2-oxa-6-azaspiro[3.3]heptane-6-carboxamide] | 70 nM | 5.45 nM | 6 nM | – | –
